This note sets out measurements from patent US20100029761A1, “NOVEL COMPOUNDS, PHARMACEUTICAL COMPOSITIONS CONTAINING SAME, AND METHODS OF USE FOR SAME” (priority 2005, published 2010).

In brackets after ≈: the same amount, converted by molar mass. Like-named read-outs stand apart in the source and are kept apart here.

The target of one data set is T1, purified human FAS (Homo sapiens, UniProt P49327).
T1 construct: Human FAS was purified from cultured ZR-75-1 human breast cancer cells obtained from the American Type Culture Collection; endogenous in cells; host or cells: ZR-75-1 human breast cancer cells (ATCC); PEG precipitations and Mono Q anion exchange
Description: Measurement of FAS enzymatic activity (malonyl-CoA dependent NADPH oxidation). Type of data set: biochemical. On the procedure:
Human FAS was purified from cultured ZR-75-1 human breast cancer cells obtained from the American Type Culture Collection. The procedure, adapted from Linn et al., 1981, and Kuhajda et al., 1994, utilizes hypotonic lysis, successive polyethyleneglycol (PEG) precipitations, and anion exchange chromatography. ZR-75-1 cells are cultured at 37° C. with 5% CO2 in RPMI culture medium with 10% fetal bovine serum, penicillin and streptomycin.
Ten T150 flasks of confluent cells are lysed with 1.5 ml lysis buffer (20 mM Tris-HCl, pH 7.5, 1 mM EDTA, 0.1 mM phenylmethanesulfonyl fluoride (PMSF), 0.1% Igepal CA-630) and dounce homogenized on ice for 20 strokes. The lysate is centrifuged in JA-20 rotor (Beckman) at 20,000 rpm for 30 minutes at 4° C. and the supernatant is brought to 42 ml with lysis buffer. A solution of 50% PEG 8000 in lysis buffer is added slowly to the supernatant to a final concentration of 7.5%. After rocking for 60 minutes at 4° C., the solution is centrifuged in JA-20 rotor (Beckman) at 15,000 rpm for 30 minutes at 4° C. Solid PEG 8000 is then added to the supernatant to a final concentration of 15%. After the rocking and centrifugation is repeated as above, the pellet is resuspended overnight at 4° C. in 10 ml of Buffer A (20 mM K2HPO4, pH 7.4). After […] filtration, the protein solution is applied to a Mono Q 5/5 anion exchange column (Pharmacia). The column is washed for 15 minutes with buffer A at 1 ml/minute, and bound material is eluted with a linear 60-ml gradient over 60 minutes to 1 M KCl. FAS (MW˜270 kD) typically elutes at 0.25 M KCl in three 0.5 ml fractions identified using 4-15% SDS-PAGE with Coomassie G250 stain (Bio-Rad). FAS protein concentration is determined using the Coomassie Plus Protein Assay Reagent (Pierce) according to manufacturer's specifications using BSA as a standard. This procedure results in substantially pure preparations of FAS (>95%) as judged by Coomassie-stained gels.
FAS activity is measured by monitoring the malonyl-CoA dependent oxidation of NADPH spectrophotometrically at OD340 in 96-well plates (Dils et al and Arslanian et al, 1975). Each well contains 2 μg purified FAS, 100 mM K2HPO4, pH 6.5, 1 mM dithiothreitol (Sigma), and 187.5 μM β-NADPH (Sigma). Stock solutions of inhibitors are prepared in DMSO at 2, 1, and 0.5 mg/ml resulting in final concentrations of 20, 10, and 5 μg/ml when 1 μl of stock is added per well. For each experiment, cerulenin (Sigma) is run as a positive control along with DMSO controls, inhibitors, and blanks (no FAS enzyme) all in duplicate.
The assay is performed on a Molecular Devices SpectraMax Plus Spectrophotometer. The plate containing FAS, buffers, inhibitors, and controls are placed in the spectrophotometer heated to 37° C. Using the kinetic protocol, the wells are blanked on duplicate wells containing 100 μl of 100 mM K2HPO4, pH 6.5 and the plate is read at OD340 at 10 sec intervals for 5 minutes to measure any malonyl-CoA independent oxidation of NADPH. The plate is removed from the spectrophotometer and malonyl-CoA (67.4 μM, final concentration per well) and […] (61.8 μM, final concentration per well) are added to each well except to the blanks. The plate is read again as above with the kinetic protocol to measure the malonyl-CoA dependent NADPH oxidation. The difference between the Δ OD340 for the malonyl-CoA dependent and non-malonyl-CoA dependent NADPH oxidation is the specific FAS activity. Because of the purity of the FAS preparation, non-malonyl-CoA dependent NADPH oxidation is negligible.
The concentration of compound yielding 50% inhibition of FAS is the IC50. Graphs of Δ OD340 versus time are plotted by the SOFTmax PRO software (Molecular Devices) for each compound concentration. Computation of linear regression, best-fit line, r^2, and 95% confidence intervals are calculated using Prism Version 3.0 (Graph Pad Software).

Data set [1] has as its system fatty acid synthesis pathway activity in MCF-7 human breast cancer cells. Description: [14C]acetate incorporation into total lipids. To be noted: for IC50: Homo sapiens, MCF7, [14C]acetate incorporation into lipids; for 14C (IC50): [14C]acetate incorporation into lipids. Type of data set: cell-based. On the procedure: This assay measures the incorporation of [^14C]acetate into total lipids and is a measure of fatty acid synthesis pathway activity in vitro. It is utilized to measure inhibition of fatty acid synthesis in vitro.
MCF-7 human breast cancer cells cultured as above, are plated at 5×10^4 cells per well in 24-well plates. Following overnight incubation, the compounds to be tested, solubilized in DMSO, are added at 5, 10, and 20 μg/ml in triplicate, with lower concentrations tested if necessary. DMSO is added to triplicate wells for a vehicle control. C75 is run at 5 and 10 μg/ml in triplicate as positive controls. After 4 hours of incubation, 0.25 μCi of [^14C]acetate (10 μl volume) is added to each well.
After 2 hours of additional incubation, medium is aspirated from the wells and 800 μl of chloroform:methanol (2:1) and 700 μl of 4 mM MgCl2 is added to each well. Contents of each well are transferred to 1.5 Eppendorf tubes, and spun at full-speed for 2 minutes in a high-speed Eppendorf Microcentrifuge 5415D. After removal of the aqueous (upper) layer, an additional 700 μl of chloroform:methanol (2:1) and 500 μl of 4 mM MgCl2 are added to each tube and then centrifuged for 1 minutes as above. The aqueous layer is removed with a Pasteur pipette and discarded. An additional 400 μl of chloroform:methanol (2:1) and 200 μl of 4 mM MgCl2 are added to each tube, then centrifuged and aqueous layer is discarded. The lower (organic) phase is transferred into a scintillation vial and dried at 40° C. under N2 gas. Once dried, 3 ml of scintillant (APB #NBC5104) is added and vials are counted for ^14C. The Beckman Scintillation counter calculates the average cpm values for triplicates.
The IC50 for the compounds is defined as the concentration of drug leading to a 50% reduction in [^14C]acetate incorporation into lipids compared to controls. This is determined by plotting the average cpm for each inhibitor concentration tested, performing linear regression and computing the best-fit line, r^2 values, and 95% confidence intervals. The average cpm values are computed by the Beckman scintillation counter (Model LS6500) for each compound concentration. Computation of linear regression, best-fit line, r^2, and 95% confidence intervals are calculated using Prism Version 3.0 (Graph Pad Software).

The mark [2] stands for this setting: marked (SB), abbreviation not defined, read-out: FAS (IC50) (SB) (converted).

T1 sequence (P49327 whole entry): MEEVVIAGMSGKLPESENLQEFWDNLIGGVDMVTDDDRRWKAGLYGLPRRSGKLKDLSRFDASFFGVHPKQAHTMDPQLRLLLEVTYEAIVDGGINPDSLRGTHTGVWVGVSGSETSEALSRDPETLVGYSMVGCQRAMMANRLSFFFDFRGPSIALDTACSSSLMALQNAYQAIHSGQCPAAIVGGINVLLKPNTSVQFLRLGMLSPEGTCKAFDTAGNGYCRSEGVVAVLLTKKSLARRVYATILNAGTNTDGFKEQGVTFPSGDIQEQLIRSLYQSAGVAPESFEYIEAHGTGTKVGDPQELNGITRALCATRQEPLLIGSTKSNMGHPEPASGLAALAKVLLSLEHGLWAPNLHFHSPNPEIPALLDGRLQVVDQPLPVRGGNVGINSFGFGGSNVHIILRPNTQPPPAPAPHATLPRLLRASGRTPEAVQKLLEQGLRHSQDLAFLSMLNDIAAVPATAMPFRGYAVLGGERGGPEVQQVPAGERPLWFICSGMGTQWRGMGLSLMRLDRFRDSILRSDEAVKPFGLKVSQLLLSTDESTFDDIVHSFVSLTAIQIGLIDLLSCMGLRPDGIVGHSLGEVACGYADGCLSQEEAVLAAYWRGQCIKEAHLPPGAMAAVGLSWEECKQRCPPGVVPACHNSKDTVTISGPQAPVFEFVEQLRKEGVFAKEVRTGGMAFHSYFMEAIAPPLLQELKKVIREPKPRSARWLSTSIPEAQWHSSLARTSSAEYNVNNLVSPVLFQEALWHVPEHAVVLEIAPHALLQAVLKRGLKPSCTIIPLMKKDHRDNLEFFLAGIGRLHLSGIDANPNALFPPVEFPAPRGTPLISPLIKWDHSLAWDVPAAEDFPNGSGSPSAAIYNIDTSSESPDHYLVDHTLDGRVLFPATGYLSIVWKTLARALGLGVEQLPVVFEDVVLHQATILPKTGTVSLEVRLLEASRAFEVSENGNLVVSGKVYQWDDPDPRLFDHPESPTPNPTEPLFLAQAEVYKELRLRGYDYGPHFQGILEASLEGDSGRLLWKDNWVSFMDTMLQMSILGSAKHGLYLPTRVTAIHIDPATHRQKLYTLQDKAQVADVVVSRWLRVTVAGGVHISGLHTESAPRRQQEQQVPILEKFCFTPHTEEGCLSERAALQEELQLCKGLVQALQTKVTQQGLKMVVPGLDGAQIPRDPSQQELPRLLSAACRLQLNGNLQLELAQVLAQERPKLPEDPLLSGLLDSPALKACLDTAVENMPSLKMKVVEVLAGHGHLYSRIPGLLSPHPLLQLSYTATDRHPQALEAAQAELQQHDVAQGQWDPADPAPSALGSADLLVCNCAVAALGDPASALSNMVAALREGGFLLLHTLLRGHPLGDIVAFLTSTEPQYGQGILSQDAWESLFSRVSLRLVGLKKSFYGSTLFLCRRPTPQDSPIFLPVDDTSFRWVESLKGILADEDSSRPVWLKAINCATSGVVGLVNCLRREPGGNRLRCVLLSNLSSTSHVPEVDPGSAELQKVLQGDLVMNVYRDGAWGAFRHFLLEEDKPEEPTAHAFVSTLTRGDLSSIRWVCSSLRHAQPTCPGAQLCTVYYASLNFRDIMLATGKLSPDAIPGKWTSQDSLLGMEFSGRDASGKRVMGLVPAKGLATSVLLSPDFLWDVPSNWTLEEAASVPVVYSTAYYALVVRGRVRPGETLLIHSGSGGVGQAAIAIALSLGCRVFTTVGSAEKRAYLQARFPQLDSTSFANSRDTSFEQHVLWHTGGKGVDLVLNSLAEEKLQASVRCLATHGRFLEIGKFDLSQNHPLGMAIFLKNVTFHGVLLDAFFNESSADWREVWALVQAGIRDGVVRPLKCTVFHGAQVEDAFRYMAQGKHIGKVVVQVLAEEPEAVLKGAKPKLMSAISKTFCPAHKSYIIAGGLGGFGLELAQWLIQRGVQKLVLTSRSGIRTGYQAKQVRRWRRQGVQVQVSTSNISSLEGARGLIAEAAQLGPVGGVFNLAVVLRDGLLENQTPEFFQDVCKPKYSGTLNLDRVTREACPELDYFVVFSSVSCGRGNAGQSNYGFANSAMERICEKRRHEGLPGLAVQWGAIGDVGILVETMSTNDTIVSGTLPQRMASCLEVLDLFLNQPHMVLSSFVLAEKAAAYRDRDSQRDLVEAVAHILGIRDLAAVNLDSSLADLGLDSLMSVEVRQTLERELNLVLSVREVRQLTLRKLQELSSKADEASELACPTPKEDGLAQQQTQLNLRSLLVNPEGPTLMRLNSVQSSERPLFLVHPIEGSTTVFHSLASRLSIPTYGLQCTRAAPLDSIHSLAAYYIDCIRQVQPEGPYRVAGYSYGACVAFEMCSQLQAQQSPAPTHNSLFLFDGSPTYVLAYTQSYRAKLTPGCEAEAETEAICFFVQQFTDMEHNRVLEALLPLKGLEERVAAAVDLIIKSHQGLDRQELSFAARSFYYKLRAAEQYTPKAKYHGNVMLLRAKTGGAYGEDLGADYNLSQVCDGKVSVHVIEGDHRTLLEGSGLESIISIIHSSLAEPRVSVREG

For `CCCCCCCCC1OC(=O)C(=O)C1C(=O)OCC` (stereo not shown) [Compound 1], the IC50 at purified human FAS (purified human FAS, OD340, read-out: FAS (IC50) (converted)) was 65.1 µM; in data set [1], 40.7 ± 7.1 µg/mL (≈ 143 µM).
Regarding `CCCCCCCCC1OC(=O)C(OCc2ccccc2)=C1C(=O)OCC` (stereo not shown) [Compound 5], the “Solubility remark under FAS (IC50)” value at purified human FAS is recorded as “Solubility problems”. Further, on purified human FAS (purified human FAS, OD340), the “FAS (IC50)” value is listed as “Neg”. In addition, the “14C (IC50)” value in data set [1] is “Neg (stim)”.
Turning to `CCCCC1OC(=O)C(O)=C1C(=O)OCC` (stereo not shown) [Compound 2], the IC50 at purified human FAS (setting [2]) was 1230 µM. The “FAS (IC50)” value at purified human FAS (purified human FAS, OD340) is “Neg”. In addition, in data set [1], the “14C (IC50)” value was “Neg”.
In the case of `CCCCCCCCC1OC(=O)C(OCC(=O)OCC)=C1C(=O)OCC` (stereo not shown) [Compound 3], the IC50 on purified human FAS (setting [2]) was 121 µM; in data set [1], 30 µg/mL (≈ 81 µM). In addition, the “FAS (IC50)” value on purified human FAS (purified human FAS, OD340) is reported as “Neg”.
On to `CCCCCCCCC1OC(=O)C(OC)=C1C(=O)OCC` (stereo not shown) [Compound 4], for which, at purified human FAS, the “Solubility remark under FAS (IC50)” value is “Solubility problems”. Besides, the “FAS (IC50)” value on purified human FAS (purified human FAS, OD340) is on record as “Neg”. Further, the “14C (IC50)” value in data set [1] is on record as “Neg”.
With `CCCCCCCCC1OC(=O)C(OC(=O)OCC)=C1C(=O)OCC` (stereo not shown) [Compound 7], the IC50 at purified human FAS (setting [2]) is 222 µM. For the same compound, the “14C (IC50)” value in data set [1] is reported as “Neg”.
Take `C=CCOC1=C(C(=O)OCC)C(CCCCCCCC)OC1=O` (stereo not shown) [Compound 6]: the “Solubility remark under FAS (IC50)” value at purified human FAS is recorded as “Solubility problems”. For the same compound, on purified human FAS (purified human FAS, OD340), the “FAS (IC50)” value is given as “Neg”. The “14C (IC50)” value in data set [1] was “Neg”.

The IC50 is the point on the concentration scale where inhibition reaches its midpoint.
